The source of these data is patent US12287344B2, “Fret-based method to measure seeding activity of misfolded protein species in biological samples” (MAX-DELBRÜCK-CENTRUM FÜR MOLEKULARE MEDIZIN IN DER …, priority 2018, dated 2025).

One assay concerns Ex1Q48-CyPet/-YPet. Briefly: FRASE assay: effect of added preformed fibrils/seeds on Ex1Q48-CyPet/-YPet polymerization. The class given is biochemical, human. To be noted: non-polyQ fibrillar aggregates produced in vitro; sensor 1:1 mixture, total conc. 1.2 μM. The procedure: (B) Effects of small, preformed Ex1Q48 seeds (1250 kDa) on Ex1Q48-CyPet and -YPet (1:1 mixture, total conc. 1.2 μM) co-aggregation. Data are mean±SEM (n=5).
(D) Effects of non-polyQ fibrils on Ex1Q48-CyPet and -YPet (1:1 mixture, total conc. 1.2 μM) co-aggregation. Data are mean±SD of triplicates.
Spontaneous Ex1Q48 aggregation was initiated by addition of 14 U PreScission protease (GE Healthcare) per nmol purified GST-Ex1Q48 fusion protein (2 μM). The aggregation reaction was performed in 50 mM Tris-HCl pH 7.4, 150 mM NaCl, 1 mM EDTA and 1 mM DTT at 25° C. and constant agitation (450 rpm) for 24 h. […] K2Q48P6 protein for seeding experiments was prepared from GST-K2Q48P6 fusion protein using the same protocol. ΔN17Q48+6PRD protein for seeding experiments was prepared from GST-ΔN17Q48+6PRD fusion protein using the same protocol. ΔN17Q40+6PRD protein for seeding experiments was prepared from GST-ΔN17Q40+6PRD fusion protein using the same protocol. Synthetic human IAPP was aggregated as described previously (Gao et al., 2015). Lyophilized α-Syn was dissolved in PBS at 500 μM and centrifuged (4° C., 265.000×g) after a 5 min sonication step to remove aggregated material. The supernatant was incubated for 7 d at 37° C. under constant shaking in the presence of a single glass bead. Tau40 was aggregated for 6 d at 37° C. under constant shaking in 100 mM sodium acetate, pH 7.4, and 1 mM DTT in the presence of heparin. Synthetic human Δβ1-42 was dissolved in 100 mM NaOH and diluted to 200 μM in low salt buffer (10 mM K3PO4, pH 7.4, 10 mM NaCl). Aggregation was performed for 6 h at 37° C. under constant agitation.
(§1) Purified GST-Ex1Q48-CyPet and GST-Ex1Q48-YPet were diluted in aggregation buffer at an equimolar ratio to a final concentration of 1.2 μM (0.6 μM each) with 14 U PSP per nmol sensor proteins if not stated otherwise. […] For quantification of seeding-competent HTT species in tissue samples, the sensor-protein mixture was supplemented with up to 10% (v/v) tissue homogenate. Fluorescence signals were measured every 20 min following a 5 s pulse of vertical shaking with a Tecan M200 fluorescence plate reader at 25° C. for up to 48 h. CyPet donor fluorescence was measured at excitation (Ex): 435 nm/emission (Em): 475 nm; YPet acceptor fluorescence at Ex: 500 nm/Em: 530 nm; the FRET channel (DA) was recorded at Ex: 435 nm/Em: 530 nm. Raw signals were processed by subtracting the background fluorescence of unlabeled Ex1Q48 in all channels. […] In brief, the FRET efficiency E (in %) was calculated as follows: E=(DA-cDxDD-cAxAA)/AA with DD=donor channel signal and AA=acceptor channel signal.
Seeding effects (Δt50 [h]) were quantified by subtracting the t50 values (time at half-maximal FRET efficiency) of the respective sample from the negative control. […]

In a further assay the target is HTTex1Q48 (Homo sapiens, UniProt P42858, INS38QQQQQQQQQQQQQQQQQQQQQQQQQQQ/P65L/V80A). Conditions: previously shown (Wagner et al., 2018); cited from earlier work.
Sequence of HTTex1Q48 (P42858 with tags, fused parts or gaps with the stated changes): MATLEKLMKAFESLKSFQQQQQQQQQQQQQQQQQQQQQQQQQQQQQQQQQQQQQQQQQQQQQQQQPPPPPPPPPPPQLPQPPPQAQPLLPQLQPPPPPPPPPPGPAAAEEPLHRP
The target of the next assay is T1, HTTex1Q48 seeds (Homo sapiens, UniProt P42858, INS38QQQQQQQQQQQQQQQQQQQQQQQQQQQ/P65L/V80A).
T1 construct: GST (N, cleaved yes); made in house; host or cells: E. coli BL21-CodonPlus-RP
T1 sequence (P42858 with tags, fused parts or gaps with the stated changes): as the sequence (P42858 with tags, fused parts or gaps with the stated changes) above
The assay is described as follows: FRASE assay of HTTex1Q48 seeds pre-incubated with compound. The format is biochemical. Conditions: preformed, sonicated HTTex1Q48 aggregates incubated with compound in 200-fold molar excess at 25° C. for 20 hours; compared to seeds incubated with DMSO. The procedure: Httex1Q48 seeds were pre-incubated with 04 in 200-fold molar excess at 25° C. for 20 h and subsequently analyzed for their seeding activity using FRASE assays. (A) Aggregation profiles of sensor proteins in the presence or absence of O4 treated seeds and respective controls. Data are mean±SD of technical triplicates.
as §1, with “signal. […]” for “signal.”

The next assay has as its system sensor proteins. Briefly: Sensor protein aggregation in the presence of compound but in the absence of HTTex1Q48 seeds. The class given is biochemical, human. Conditions: compound present, no HTTex1Q48 seeds; residual concentration. The procedure: Purified GST-Ex1Q48-CyPet and GST-Ex1Q48-YPet were diluted in aggregation buffer at an equimolar ratio to a final concentration of 1.2 μM (0.6 μM each) with 14 U PSP per nmol sensor proteins if not stated otherwise. The solution was then mixed with preformed aggregates of Ex1Q48 (seeds) at varying concentrations with or without prior sonication and transferred to a black 384-well plate (with a final reaction volume of 30 μl per well and a sensor protein concentration of 1.2 μM). For quantification of seeding-competent HTT species in tissue samples, the sensor-protein mixture was supplemented with up to 10% (v/v) tissue homogenate. Fluorescence signals were measured every 20 min following a 5 s pulse of vertical shaking with a Tecan M200 fluorescence plate reader at 25° C. for up to 48 h. CyPet donor fluorescence was measured at excitation (Ex): 435 nm/emission (Em): 475 nm; YPet acceptor fluorescence at Ex: 500 nm/Em: 530 nm; the FRET channel (DA) was recorded at Ex: 435 nm/Em: 530 nm. Raw signals were processed by subtracting the background fluorescence of unlabeled Ex1Q48 in all channels. […] In brief, the FRET efficiency E (in %) was calculated as follows: E=(DA-cDxDD-cAxAA)/AA with DD=donor channel signal and AA=acceptor channel signal. […]

Regarding “tau: recombinant Tau40 protein aggregated in the presence of heparin”, the “influence on Ex1Q48-CyPet/-YPet polymerization” value (shortened to “influence”) in the assay with Ex1Q48-CyPet/-YPet is reported as “did not significantly influence”.

For “amyloid-β: synthetic human Aβ1-42 aggregated in vitro”, the “influence” value in the assay with Ex1Q48-CyPet/-YPet was “did not significantly influence”.

For α-synuclein, the “influence” value with Ex1Q48-CyPet/-YPet is listed as “did not significantly influence”.

Take `O=c1cc2oc3cc(O)c(-c4ccc(O)cc4O)cc3nc-2cc1-c1ccc(O)cc1O` [O4]: the “interference with the aggregation of HTTex1Q48” value at HTTex1Q48 is on record as “interfere with the aggregation”. Moreover, the “HTTex1Q48 seeding activity (HSA, Δt50) after pre-incubation of seeds” value at HTTex1Q48 seeds is reported as “strongly reduces”. Moreover, in the assay on sensor proteins, the “effect on sensor protein aggregation” value is “no significant effect”.

In the case of “IAPP: synthetic human islet amyloid polypeptide aggregated in vitro (KCNTATCATQRLANFLVHSSNNFGAILSSTNVGSNTY)”, in the assay on Ex1Q48-CyPet/-YPet, the “influence” value was “did not significantly influence”.
